Patent US9963482B2, “Phosphatidylinositol-3-kinase inhibitor and pharmaceutical composition” (Tohoku University, priority 2011, dated 2018)
Read-outs that look alike come from different tables or passages of the source.

What was measured:
[1] = biological target: T1, human p110α expressed in budding yeast (Homo sapiens, UniProt P42336); experiment: Screening of PI3K inhibitor using budding yeast (recovery from cell proliferation disorder caused by p110α); type: cell-based; conditions: AD1-9 transformant expressing p110α, compound 5 μM, 24 hours, average of three tests
T1 construct: expressed in transfected cells; host or cells: Saccharomyces cerevisiae AD1-9 (LEU2-disrupted), galactose-induced
Method: AD1-9 strain can be obtained from Nader Nourizad (Stanford Genome Technology Center Stanford University, CA, USA).
The transformed AD 1-9 strain was cultured at 30° C. in a minimal complete medium SC-U-L containing no uracil and leucine or SGal-U-L in which 2% glucose was replaced with 2% galactose.
By using the aforementioned system, screening of the compound library, which was obtained from the Screening committee of anticancer drugs supported by grant-in-aid for scientific research on priority area “Cancer” from Ministry of Education, Culture, Sports, Science, and Technology, Japan, was performed. Each compound was added to SGal-U-L liquid medium to constitute a concentration of 0.5 μM or 5 μM and the transformant of AD 1-9 was cultured for 24 hours under shaking. Thereafter, A600 was measured. […] Three independent tests were repeatedly performed to calculate the average value of A600.

[2] = system: RKO cells; experiment: Cytotoxic effect by MTT assay, RKO; type: cell-based, human; conditions: 24 hours
Method: (§1) The human culture cells used were colon cancer cell lines (HCT116, CO115, and RKO). HCT116 and RKO were obtained from American Type Culture Collection (ATCC). CO115 was obtained from John M. Mariadason (Ludwig Institute for Cancer Research, Melbourne, Australia). The cells were cultured at 37° C. in the presence of 5% CO2 by using RPMI1640 medium containing inactivated fetal bovine serum at the concentration of 10%.
(§2) After 24 hours, the number of live cells was determined by using “Cell counting kit-8” (trade name, manufactured by DOJINDO CO., LTD). […] The amount of formazan dye and the number of live cells are in proportional relationship, and by measuring the absorbance of formazan at 450 nm using a microplate reader (trade name: “SpectraMax M2e”, manufactured by Molecular Devices), the number of live cells was counted.

[3] = system: HCT116 cells; experiment: FACS cell cycle analysis in HCT116 cells; type: cell-based, human; conditions: HCT116, 24 hours; SAHA 2.5 μM, LY294002 50 μM, FK228 or FK-A5 at low concentration
Method: The cells were collected, fixed with ethanol, stained with iodopropidium/PBS solution, and analyzed by using “Cytomics FC500 Flow Cytometry System” (trade name, manufactured by Beckman Coulter). The cell cycle fractions were calculated by using “Multicycle software” (trade name, manufactured by Phenomix Flow Systems).

[4] = biological target: T2, PI3K (p110α/p85α) (Homo sapiens, UniProt P42336); experiment: In vitro PI3K inhibitory activity by mobility shift assay (Carna Biosciences); type: biochemical
T2 construct: purchased Carna Biosciences, Inc. (Kobe); contract measurement
Method: The PI3K (p110α/p85α) inhibitory activity was evaluated at Carna Biosciences, Inc. (Kobe) by mobility shift assay which included isolation and quantification of a substrate and the phosphorylated substrate based on the mobility in a capillary (https://www.carnabio.com/japanese/product/search.cgi?mode=profiling). […] After allowing the reaction to occur for 5 hours at room temperature, the mobility shift assay was performed. The test was performed in duplicate.
Inhibition rate was calculated as follows.
The value of product/substrate+product when an agent was added thereto was calculated similarly, and the inhibition rate was calculated based on a difference from the control value.

[5] = biological target: HDAC1 (Homo sapiens, UniProt Q13547); conditions: cited from earlier work
[6] = system: CO115 cells; experiment: Cytotoxic effect by MTT assay, CO115; type: cell-based, human; conditions: CO115, 24 hours
Method: as §1, §2

[7] = system: AKT pathway in PC3 (prostate cancer) cells; experiment: AKT pathway inhibition by Western blotting in PC3 cells; type: cell-based, human
Method: PC3 cells were obtained from Cell Resource Center for Medical Research of Institute of Development, Aging, and Cancer, Tohoku University. The cells were cultured at 37° C. in the presence of 5% CO2 by using RPMI1640 medium containing inactivated fetal bovine serum at the concentration of 10%.
Western blotting was performed as follows. Various kinds of the cells treated with each compound were collected and lysed in a lysis buffer (500 mM Tris-HCl pH 7.5, 100 mM NaCl, 2 mM EDTA, 1 mM sodium orthovanadate, 1% NP-40, and 1% protease inhibitor cocktail, manufactured by SIGMA-ALDRICH). After centrifugation, the supernatants were collected.
The followings were used as primary antibodies.
As a secondary antibody, “Alexa Fluor680IgG” (trade name, manufactured by Invitrogen) was used. By using “Odyssey Infrared Imaging System” (trade name, manufactured by LI-COR), expression of the protein of interest was determined.

[8] = biological target: T3, HDAC6 (Homo sapiens, UniProt Q9UBN7); conditions: Table 2; cited from earlier work
T3 sequence (Q9UBN7 1-1215): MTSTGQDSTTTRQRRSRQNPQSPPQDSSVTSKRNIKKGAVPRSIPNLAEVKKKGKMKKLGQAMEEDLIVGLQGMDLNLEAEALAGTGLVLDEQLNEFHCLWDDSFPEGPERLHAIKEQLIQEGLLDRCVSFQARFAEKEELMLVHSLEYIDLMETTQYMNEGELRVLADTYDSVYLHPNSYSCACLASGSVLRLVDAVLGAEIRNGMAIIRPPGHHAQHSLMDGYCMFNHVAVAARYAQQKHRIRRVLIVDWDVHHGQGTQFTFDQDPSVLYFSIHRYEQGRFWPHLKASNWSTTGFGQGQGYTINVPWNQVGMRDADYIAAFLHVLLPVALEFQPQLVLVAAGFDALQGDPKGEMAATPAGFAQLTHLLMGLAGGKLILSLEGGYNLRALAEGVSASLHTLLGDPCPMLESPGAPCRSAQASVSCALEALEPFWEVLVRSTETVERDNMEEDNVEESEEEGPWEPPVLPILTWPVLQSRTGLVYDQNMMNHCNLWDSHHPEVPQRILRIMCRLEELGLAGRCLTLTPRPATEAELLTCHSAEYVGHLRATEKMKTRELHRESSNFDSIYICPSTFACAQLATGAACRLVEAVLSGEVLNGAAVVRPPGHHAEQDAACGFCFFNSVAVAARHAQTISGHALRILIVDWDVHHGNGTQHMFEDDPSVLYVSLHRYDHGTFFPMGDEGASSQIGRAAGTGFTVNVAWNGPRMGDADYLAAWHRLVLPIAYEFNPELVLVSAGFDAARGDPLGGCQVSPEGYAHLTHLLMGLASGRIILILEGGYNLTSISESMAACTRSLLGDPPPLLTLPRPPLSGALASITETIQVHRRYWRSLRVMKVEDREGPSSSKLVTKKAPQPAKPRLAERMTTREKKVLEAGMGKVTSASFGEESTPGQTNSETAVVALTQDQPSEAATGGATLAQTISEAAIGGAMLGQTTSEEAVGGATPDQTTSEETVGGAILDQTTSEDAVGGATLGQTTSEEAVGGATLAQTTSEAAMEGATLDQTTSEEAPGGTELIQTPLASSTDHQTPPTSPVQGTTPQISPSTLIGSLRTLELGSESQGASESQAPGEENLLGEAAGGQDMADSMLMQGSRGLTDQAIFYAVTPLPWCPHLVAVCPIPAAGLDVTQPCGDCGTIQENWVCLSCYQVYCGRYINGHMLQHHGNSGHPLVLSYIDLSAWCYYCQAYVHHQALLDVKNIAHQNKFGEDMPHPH

[9] = system: HCT116 cells; experiment: Cytotoxic effect by MTT assay, HCT116; type: cell-based, human; conditions: HCT116, 24 hours
Method: as §1, §2

T2 sequence (P42336 whole entry): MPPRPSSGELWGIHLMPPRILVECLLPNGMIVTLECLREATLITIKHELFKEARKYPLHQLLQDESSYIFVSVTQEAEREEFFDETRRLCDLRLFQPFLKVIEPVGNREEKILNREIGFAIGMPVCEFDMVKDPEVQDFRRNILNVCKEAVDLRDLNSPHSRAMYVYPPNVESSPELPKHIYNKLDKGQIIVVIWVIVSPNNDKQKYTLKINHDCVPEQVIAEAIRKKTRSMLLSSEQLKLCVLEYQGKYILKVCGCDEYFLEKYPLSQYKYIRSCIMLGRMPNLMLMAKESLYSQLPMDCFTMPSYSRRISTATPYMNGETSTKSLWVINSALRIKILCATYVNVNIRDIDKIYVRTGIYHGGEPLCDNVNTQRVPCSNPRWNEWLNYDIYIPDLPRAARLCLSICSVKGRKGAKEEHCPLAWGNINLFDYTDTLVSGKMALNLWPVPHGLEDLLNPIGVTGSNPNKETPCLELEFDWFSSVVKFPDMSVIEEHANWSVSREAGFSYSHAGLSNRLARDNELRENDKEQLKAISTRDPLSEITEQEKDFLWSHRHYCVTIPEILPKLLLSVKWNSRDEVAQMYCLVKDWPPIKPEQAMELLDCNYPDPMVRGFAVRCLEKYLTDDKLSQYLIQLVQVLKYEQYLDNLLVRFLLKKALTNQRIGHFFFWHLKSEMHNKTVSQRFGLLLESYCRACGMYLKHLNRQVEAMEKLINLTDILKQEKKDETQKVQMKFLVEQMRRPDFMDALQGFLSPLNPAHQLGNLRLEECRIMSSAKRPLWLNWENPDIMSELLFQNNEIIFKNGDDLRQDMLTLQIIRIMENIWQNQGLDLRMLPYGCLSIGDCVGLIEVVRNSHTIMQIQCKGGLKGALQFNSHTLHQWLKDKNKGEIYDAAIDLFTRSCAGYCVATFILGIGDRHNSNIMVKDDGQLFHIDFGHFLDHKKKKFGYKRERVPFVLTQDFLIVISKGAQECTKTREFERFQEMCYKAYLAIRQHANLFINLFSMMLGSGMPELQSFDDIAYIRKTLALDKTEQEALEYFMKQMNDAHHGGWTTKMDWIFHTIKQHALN
T2 sequence (P27986 whole entry partner): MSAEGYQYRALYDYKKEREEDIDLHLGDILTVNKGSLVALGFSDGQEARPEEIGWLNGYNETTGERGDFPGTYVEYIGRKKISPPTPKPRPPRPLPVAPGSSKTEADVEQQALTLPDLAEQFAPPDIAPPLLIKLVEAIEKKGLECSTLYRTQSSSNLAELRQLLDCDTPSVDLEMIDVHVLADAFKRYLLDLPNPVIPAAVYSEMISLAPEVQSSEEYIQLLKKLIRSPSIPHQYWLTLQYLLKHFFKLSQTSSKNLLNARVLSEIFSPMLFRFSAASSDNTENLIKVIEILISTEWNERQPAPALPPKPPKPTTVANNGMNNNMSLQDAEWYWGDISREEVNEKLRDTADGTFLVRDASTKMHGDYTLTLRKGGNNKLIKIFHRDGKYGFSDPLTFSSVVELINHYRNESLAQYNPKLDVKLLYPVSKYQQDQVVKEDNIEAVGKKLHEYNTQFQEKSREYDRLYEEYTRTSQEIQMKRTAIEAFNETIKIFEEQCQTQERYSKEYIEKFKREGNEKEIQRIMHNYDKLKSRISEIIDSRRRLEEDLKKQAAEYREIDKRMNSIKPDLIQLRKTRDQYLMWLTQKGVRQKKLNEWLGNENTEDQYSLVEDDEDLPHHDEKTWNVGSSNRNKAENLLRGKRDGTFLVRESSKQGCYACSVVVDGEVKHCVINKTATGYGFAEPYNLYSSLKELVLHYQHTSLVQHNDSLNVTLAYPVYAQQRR
HDAC1, sequence (Q13547 whole entry, species assumed): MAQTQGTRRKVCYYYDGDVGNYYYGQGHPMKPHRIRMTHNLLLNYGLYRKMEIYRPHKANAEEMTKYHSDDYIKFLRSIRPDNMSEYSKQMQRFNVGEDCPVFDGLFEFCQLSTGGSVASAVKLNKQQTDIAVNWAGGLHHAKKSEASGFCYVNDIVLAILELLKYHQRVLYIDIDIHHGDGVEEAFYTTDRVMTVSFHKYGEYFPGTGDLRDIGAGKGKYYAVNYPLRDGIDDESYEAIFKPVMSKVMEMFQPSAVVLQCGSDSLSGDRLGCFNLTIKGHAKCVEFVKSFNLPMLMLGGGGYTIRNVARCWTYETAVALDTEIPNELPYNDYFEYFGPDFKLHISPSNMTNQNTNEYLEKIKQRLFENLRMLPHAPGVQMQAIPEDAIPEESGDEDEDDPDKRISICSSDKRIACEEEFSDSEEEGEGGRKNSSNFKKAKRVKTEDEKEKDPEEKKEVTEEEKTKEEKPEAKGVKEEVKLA
T1 sequence (P42336 whole entry): as the sequence (P42336 whole entry) above

## CC(C)[C@H]1NC(=O)CC2/C=C/CCSSCC(NC1=O)C(=O)N[C@H](Cc1ccccc1)C(=O)NCC(=O)O2 (stereo in doubt) [FK-A5]
[1]
  A600: 0.449
[2]; μM levels
  number of cells at high concentration: very significantly reduced the number of cells
[3]
  cell cycle arrest: induced cell cycle arrest, predominantly at G2/M phase
[4]; 50 μM ATP, read-out: IC50 for PI3K
  IC50: 26200 nM
[4]; Table 3, PI3K (p110α/p85α), read-out: PI3K IC50
  IC50: 27300 nM
[4]; compound 20 μM, 50 μM ATP
  PI3K activity inhibitory rate: higher inhibition rate than FK228
[4]; compound 20 μM, 50 μM ATP, read-out: PI3K activity inhibitory rate
  inhibition at 20 µM: 66.8%
[5]; Table 2
  IC50: 2.5 nM
[5]; Table 3
  IC50: 2.5 nM
[6]; μM levels
  number of cells at high concentration: very significantly reduced the number of cells
[7]; 10 μM, 5 to 180 minutes
  expression level of phosphorylated AKT (Ser-473, Thr-308) over time: lowered the expression level of phosphorylated AKT (Ser-473, Thr-308)
[7]; 180 minutes
  phosphorylated ERK1/2: slightly inhibited
  phosphorylated MEK1/2: not inhibited
[7]; 180 minutes, varying concentration
  expression levels of phosphorylated AKT, GSK-3β, mTOR, p70S6K and 4E-BP1: inhibited in a concentration dependent manner
[8]
  IC50: 1600 nM
[9]; μM levels
  number of cells at high concentration: very significantly reduced the number of cells

## CC(C)[C@H]1NC(=O)CC2/C=C/CCSSCC(NC1=O)C(=O)N[C@H](Cc1cccc3ccccc13)C(=O)NCC(=O)O2 (stereo partly drawn) [FK-A11]
[2]; 5 nM to 500 nM
  cell death: significant cell death
[6]; from 500 nM
  cell death: strong cell death
[6]; up to 50 nM
  cell death: resistant
[7]; 180 minutes
  inhibition of AKT phosphorylation compared with FK-A5 and FK228: occurred at a lower concentration than FK-A5 and FK228
[9]; 5 nM to 500 nM
  cell death: significant cell death
